Measured values from ChEMBL document CHEMBL1123274, “Azasteroids: structure-activity relationships for inhibition of 5 alpha-reductase and of androgen receptor binding” (J Med Chem, 1986).

biological target: T1, Androgen receptor (Rattus norvegicus, UniProt P15207); assay: In vitro antagonist activity against rat prostatic androgen receptor (AR)
T1 sequence (P15207 whole entry): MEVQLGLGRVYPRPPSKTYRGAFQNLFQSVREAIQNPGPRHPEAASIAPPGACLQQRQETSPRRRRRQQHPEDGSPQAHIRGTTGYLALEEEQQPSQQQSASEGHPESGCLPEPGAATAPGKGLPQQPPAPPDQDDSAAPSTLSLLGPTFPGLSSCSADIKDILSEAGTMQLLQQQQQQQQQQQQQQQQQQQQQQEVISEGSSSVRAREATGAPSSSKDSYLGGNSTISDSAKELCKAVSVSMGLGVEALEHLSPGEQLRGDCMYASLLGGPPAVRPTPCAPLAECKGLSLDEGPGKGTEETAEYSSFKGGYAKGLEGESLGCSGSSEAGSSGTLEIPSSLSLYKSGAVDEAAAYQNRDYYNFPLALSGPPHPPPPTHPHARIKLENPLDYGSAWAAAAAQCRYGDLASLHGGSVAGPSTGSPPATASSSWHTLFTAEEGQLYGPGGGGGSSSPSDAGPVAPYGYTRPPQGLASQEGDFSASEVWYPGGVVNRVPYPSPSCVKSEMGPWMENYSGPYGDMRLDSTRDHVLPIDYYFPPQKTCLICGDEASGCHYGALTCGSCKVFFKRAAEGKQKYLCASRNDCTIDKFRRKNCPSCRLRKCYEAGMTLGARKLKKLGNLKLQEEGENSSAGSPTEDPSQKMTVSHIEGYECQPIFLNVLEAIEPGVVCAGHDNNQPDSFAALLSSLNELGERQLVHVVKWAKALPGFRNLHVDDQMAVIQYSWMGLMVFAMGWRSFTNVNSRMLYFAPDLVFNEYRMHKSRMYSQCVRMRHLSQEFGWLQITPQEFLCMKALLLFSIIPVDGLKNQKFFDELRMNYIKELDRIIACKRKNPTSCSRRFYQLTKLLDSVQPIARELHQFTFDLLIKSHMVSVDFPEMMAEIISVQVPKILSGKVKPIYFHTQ

Row | IC50 | Structure (SMILES)
1 | > 10 µM | CCN(CC)C(=O)[C@H]1CC[C@H]2[C@@H]3CC[C@H]4N(C)C(=O)[C@H](OC)C[C@]4(C)[C@H]3CC[C@]12C
2 | > 100 µM | C[C@]12CC[C@H]3[C@@H](CCC4NC(=O)CC[C@@]43C)[C@@H]1CC[C@@H]2C(=O)[O-].[K+] (some centres undefined)
3 | > 10 µM | CCN(CC)C(=O)[C@H]1CC[C@H]2[C@@H]3CC[C@@H]4NC(=O)CC[C@]4(C)[C@H]3CC[C@]12C (stereo in doubt; 79)
4 | 48 µM | CCN(CC)C(=O)C(C)[C@H]1CC[C@H]2[C@@H]3CCC4N(C)C(=O)CC[C@]4(C)[C@H]3CC[C@]12C (some centres undefined)
5 | 40 µM | CC(=O)N[C@@H]1CC[C@H]2[C@@H]3CCC4N(C)C(=O)CC[C@]4(C)[C@H]3CC[C@]12C (some centres undefined)
6 | 0.15 µM | CN1C(=O)C=C[C@@]2(C)C1CC[C@H]1[C@@H]3CC[C@H](C(=O)NC(C)(C)C)[C@@]3(C)CC[C@@H]12 (some centres undefined)
7 | 0.15 µM | CN1C(=O)CC[C@H]2C1=CC[C@@H]1[C@@H]2CC[C@@]2(C)[C@H]1CC[C@@]21CCCO1 (stereo in doubt; 75)
8 | > 100 µM | CCN(CC)C(=O)[C@H]1CC[C@H]2[C@@H]3CC[C@H]4NC(=O)C=C[C@]4(C)[C@H]3CC[C@]12C
9 | 1.8 µM | CCN(CC)C(=O)[C@H]1CC[C@H]2[C@@H]3CC[C@H]4N(C)C(=O)[C@@H](F)C[C@]4(C)[C@H]3CC[C@]12C
10 | 0.34 µM | CCCCCCCCNC(=O)[C@H]1CC[C@H]2[C@@H]3CCC4N(C)C(=O)C=C[C@]4(C)[C@H]3CC[C@]12C (some centres undefined)
11 | 0.24 µM | CN1C(=O)CC[C@H]2C1=CC[C@@H]1[C@@H]2CC[C@@]2(C)[C@H]1CC[C@@]21CCCO1 (stereo in doubt; 74)
12 | 8 µM | C[C@]12CC[C@H]3[C@@H](CCC4NC(=O)C=C[C@@]43C)[C@@H]1CC[C@@H]2C(=O)c1ccc[nH]1 (some centres undefined)
13 | 3.2 µM | COC(=O)[C@H]1CC[C@H]2[C@@H]3CC[C@H]4NC(=O)C=C[C@]4(C)[C@H]3CC[C@]12C
14 | > 100 µM | C[C@]12CC[C@H]3[C@@H](CCC4NC(=O)CC[C@@]43C)[C@@H]1CC[C@@H]2C(N)=O (some centres undefined)
15 | 0.27 µM | COC(=O)C(C)[C@H]1CC[C@H]2[C@@H]3CCC4N(C)C(=O)C=C[C@]4(C)[C@H]3CC[C@]12C (some centres undefined)
16 | 6.4 µM | CC(C)N(C(=O)[C@H]1CC[C@H]2[C@@H]3CC=C4N(C)C(=O)C=C[C@]4(C)[C@H]3CC[C@]12C)C(C)C
17 | 0.71 µM | CCN(CC)C(=O)[C@H]1CC[C@H]2[C@@H]3CC[C@H]4N(C)C(=O)[C@@H]5O[C@@H]5[C@]4(C)[C@H]3CC[C@]12C
18 | 32 µM | CCN(CC)C(=O)[C@H]1CC[C@H]2[C@@H]3CC[C@H]4N(CC)C(=O)CC[C@]4(C)[C@H]3CC[C@]12C
19 | 0.58 µM | CN1C(=O)CC[C@@]2(C)C1CC[C@H]1[C@@H]3CC[C@H](C(=O)C=[N+]=[N-])[C@@]3(C)CC[C@@H]12 (some centres undefined)
20 | > 100 µM | CC(C)(C)CC(C)(C)NC(=O)[C@H]1CC[C@H]2[C@@H]3CCC4NC(=O)C=C[C@]4(C)[C@H]3CC[C@]12C (some centres undefined)

Row | IC50 | Structure (SMILES)
21 | > 10 µM | CCNC(=O)[C@H]1CC[C@H]2[C@@H]3CC[C@H]4NC(=O)C=C[C@]4(C)[C@H]3CC[C@]12C
22 | 10 µM | CC(C)N(C(=O)[C@H]1CC[C@H]2[C@@H]3CC=C4N(C)C(=O)CC[C@]4(C)[C@H]3CC[C@]12C)C(C)C
23 | > 100 µM | CC(C)CC(=O)[C@H]1CC[C@H]2[C@@H]3CCC4NC(=O)CC[C@]4(C)[C@H]3CC[C@]12C (some centres undefined)
24 | > 100 µM | COC(=O)C(C)[C@H]1CC[C@H]2[C@@H]3CCC4NC(=O)C=C[C@]4(C)[C@H]3CC[C@]12C (some centres undefined)
25 | 15 µM | C[C@]12CC[C@H]3[C@@H](CCC4NC(=O)CC[C@@]43C)[C@@H]1CC[C@@H]2C(=O)c1ccc[nH]1 (some centres undefined)
26 | > 10 µM | CCN(CC)C(=O)[C@H]1CC[C@H]2[C@@H]3CC[C@H]4N(C)C(=O)[C@@H](OC)C[C@]4(C)[C@H]3CC[C@]12C
27 | 0.083 µM | CCNC(=O)[C@H]1CC[C@H]2[C@@H]3CC[C@H]4N(C)C(=O)C=C[C@]4(C)[C@H]3CC[C@]12C
28 | > 100 µM | CC(C(=O)O)[C@H]1CC[C@H]2[C@@H]3CCC4N(C)C(=O)C=C[C@]4(C)[C@H]3CC[C@]12C (some centres undefined)
29 | > 10 µM | CCN(CC)C(=O)[C@H]1CC[C@H]2[C@@H]3CC[C@H]4NC(=O)CCC[C@]4(C)[C@H]3CC[C@]12C
30 | > 100 µM | CC(C)CC(=O)[C@H]1CC[C@H]2[C@@H]3CCC4NC(=O)C=C[C@]4(C)[C@H]3CC[C@]12C (some centres undefined)
31 | 0.25 µM | CCCCCNC(=O)[C@H]1CC[C@H]2[C@@H]3CCC4N(C)C(=O)CC[C@]4(C)[C@H]3CC[C@]12C (some centres undefined)
32 | > 100 µM | CC(C(=O)O)[C@H]1CC[C@H]2[C@@H]3CCC4NC(=O)CC[C@]4(C)[C@H]3CC[C@]12C (some centres undefined)
33 | 0.94 µM | CN1C(=O)CC[C@@]2(C)C1CC[C@H]1[C@@H]3CC[C@H](C(=O)NC(C)(C)CO)[C@@]3(C)CC[C@@H]12 (some centres undefined)
34 | 2 µM | CN1C(=O)CC[C@H]2C1CC[C@@H]1[C@@H]2CC[C@@]2(C)[C@H]1CC[C@@]21CCCO1 (some centres undefined)
35 | > 100 µM | CC(C(=O)O)[C@H]1CC[C@H]2[C@@H]3CCC4NC(=O)C=C[C@]4(C)[C@H]3CC[C@]12C (some centres undefined)
36 | > 10 µM | C[C@]12C=CC(=O)N[C@@H]1CC[C@@H]1[C@@H]2CC[C@]2(C)[C@@H](C(N)=O)CC[C@@H]12
37 | > 10 µM | C[C@]12CC[C@H]3[C@@H](CCC4NC(=O)C=C[C@@]43C)[C@@H]1CC[C@@H]2C(=O)Sc1ccccn1 (some centres undefined)
38 | > 100 µM | CO[C@H]1CC(=O)NC2CC[C@H]3[C@@H]4CC[C@H](C(N)=O)[C@@]4(C)CC[C@@H]3[C@]21C (some centres undefined)
39 | 7.1 µM | CCN(CC)C(=O)[C@H]1CCC[C@H]2[C@@H]3CC[C@H]4N(C)C(=O)CC[C@]4(C)[C@H]3CC[C@]12C

Row | Structure (SMILES) | IC50
40 | CCN(CC)C(=O)/C=C1\CC[C@H]2[C@@H]3CCC4N(C)C(=O)CC[C@]4(C)[C@H]3CC[C@]12C (some centres undefined) | 0.93 µM
41 | CCN(CC)C(=O)[C@H]1CC[C@H]2[C@@H]3CC[C@H]4N(C)C(=O)CCC[C@]4(C)[C@H]3CC[C@]12C | 0.6 µM
42 | C[C@]12C=CC(=O)N[C@@H]1CC[C@@H]1[C@@H]2CC[C@]2(C)[C@@H](O)CC[C@@H]12 | 0.17 µM
43 | COC(=O)[C@H]1CC[C@H]2[C@@H]3CC[C@H]4N(C)C(=O)C=C[C@]4(C)[C@H]3CC[C@]12C | 0.013 µM
44 | CN1C(=O)C=C[C@@]2(C)C1CC[C@H]1[C@@H]3CC[C@H](C(=O)Sc4ccccn4)[C@@]3(C)CC[C@@H]12 (some centres undefined) | 0.1 µM
45 | CN1C(=O)C=C[C@]2(C)[C@H]3CC[C@]4(C)[C@@H](C(N)=O)CC[C@H]4[C@@H]3CC[C@@H]12 | 0.15 µM
46 | CC(=O)[C@H]1CC[C@H]2[C@@H]3CCC4=CC(=O)CC[C@]4(C)[C@H]3[C@H](O)C[C@]12C | 0.33 µM
47 | CN1C(=O)CC[C@@]2(C)C1=CC[C@H]1[C@@H]3CC[C@H](O)[C@@]3(C)CC[C@@H]12 | 0.0074 µM
48 | CN1C(=O)C=C[C@@]2(C)C1CC[C@H]1[C@@H]3CC[C@H](C(=O)c4ccc[nH]4)[C@@]3(C)CC[C@@H]12 (some centres undefined) | 0.015 µM
49 | CN1C(=O)CC[C@@]2(C)C1CC[C@H]1[C@@H]3CC[C@H](C(=O)c4ccc[nH]4)[C@@]3(C)CC[C@@H]12 (some centres undefined) | 0.089 µM
50 | CN1C(=O)C=C[C@]2(C)[C@H]3CC[C@]4(C)[C@@H](O)CC[C@H]4[C@@H]3CC[C@@H]12 | 0.0024 µM

biological target: T2, Steroid 5-alpha-reductase (Rattus norvegicus, UniProt P24008+P31214); assay: In vitro inhibitory activity against rat prostatic steroid 5-alpha-reductase; assay type: protein assay
T2 sequence (P24008 whole entry): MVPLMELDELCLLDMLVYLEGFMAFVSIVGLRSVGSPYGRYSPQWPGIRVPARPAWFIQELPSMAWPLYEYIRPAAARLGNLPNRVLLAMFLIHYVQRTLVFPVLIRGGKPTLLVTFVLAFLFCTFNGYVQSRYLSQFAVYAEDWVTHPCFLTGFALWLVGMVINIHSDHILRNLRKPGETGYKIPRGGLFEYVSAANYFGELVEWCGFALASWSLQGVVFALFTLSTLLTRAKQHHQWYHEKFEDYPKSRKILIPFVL
T2 sequence (P31214 whole entry): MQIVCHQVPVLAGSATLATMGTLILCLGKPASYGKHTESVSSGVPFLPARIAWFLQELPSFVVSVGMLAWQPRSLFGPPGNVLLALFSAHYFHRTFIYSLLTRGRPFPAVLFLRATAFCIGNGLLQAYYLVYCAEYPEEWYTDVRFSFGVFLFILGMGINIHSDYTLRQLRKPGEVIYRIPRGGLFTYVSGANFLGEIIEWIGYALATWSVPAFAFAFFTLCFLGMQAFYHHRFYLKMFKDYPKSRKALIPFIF

Row | IC50 | Ki app | Structure (SMILES)
51 | 0.025 µM |  | C[C@]12CC[C@H]3[C@@H](CCC4NC(=O)CC[C@@]43C)[C@@H]1CC[C@@H]2C(=O)[O-].[K+] (some centres undefined)
52 | > 1 µM |  | CCN(CC)C(=O)[C@H]1CC[C@H]2[C@@H]3CC[C@@H]4NC(=O)CC[C@]4(C)[C@H]3CC[C@]12C (stereo in doubt; 79)
53 | 0.013 µM |  | CCN(CC)C(=O)C(C)[C@H]1CC[C@H]2[C@@H]3CCC4N(C)C(=O)CC[C@]4(C)[C@H]3CC[C@]12C (some centres undefined)
54 | 0.058 µM |  | CC(=O)N[C@@H]1CC[C@H]2[C@@H]3CCC4N(C)C(=O)CC[C@]4(C)[C@H]3CC[C@]12C (some centres undefined)
55 | 0.013 µM |  | CN1C(=O)C=C[C@@]2(C)C1CC[C@H]1[C@@H]3CC[C@H](C(=O)NC(C)(C)C)[C@@]3(C)CC[C@@H]12 (some centres undefined)
56 | 0.14 µM |  | CCN(CC)C(=O)[C@H]1CC[C@H]2[C@@H]3CC[C@H]4NC(=O)C=C[C@]4(C)[C@H]3CC[C@]12C
57 |  | 0.133 µM | COC(=O)[C@H]1CC[C@H]2[C@@H]3CCC4NC(=O)CC[C@]4(C)[C@H]3CC[C@]12C (some centres undefined)
58 | 0.0068 µM |  | CC(C)(C)NC(=O)[C@H]1CC[C@H]2[C@@H]3CC[C@H]4NC(=O)C=C[C@]4(C)[C@H]3CC[C@]12C [FINASTERIDE]

Row | Structure (SMILES) | IC50 | Ki app
59 | CCN(CC)C(=O)/C=C1\CC[C@H]2[C@@H]3CCC4N(C)C(=O)CC[C@]4(C)[C@H]3CC[C@]12C (some centres undefined) | 0.0025 µM | 
